Literature values, collected in patent US7026301B2, “Method of orally treating inflammatory skin conditions with prodrugs of 5-fluorouracil” (New York University, priority 2002, dated 2006).

What was measured:
[1] = molecular target: T1, dihydropyrimidine dehydrogenase (DPD) (Homo sapiens, UniProt Q12882)
T1 construct: host or cells: endogenous enzyme of patients (in vivo)
T1 sequence (Q12882 4-1025): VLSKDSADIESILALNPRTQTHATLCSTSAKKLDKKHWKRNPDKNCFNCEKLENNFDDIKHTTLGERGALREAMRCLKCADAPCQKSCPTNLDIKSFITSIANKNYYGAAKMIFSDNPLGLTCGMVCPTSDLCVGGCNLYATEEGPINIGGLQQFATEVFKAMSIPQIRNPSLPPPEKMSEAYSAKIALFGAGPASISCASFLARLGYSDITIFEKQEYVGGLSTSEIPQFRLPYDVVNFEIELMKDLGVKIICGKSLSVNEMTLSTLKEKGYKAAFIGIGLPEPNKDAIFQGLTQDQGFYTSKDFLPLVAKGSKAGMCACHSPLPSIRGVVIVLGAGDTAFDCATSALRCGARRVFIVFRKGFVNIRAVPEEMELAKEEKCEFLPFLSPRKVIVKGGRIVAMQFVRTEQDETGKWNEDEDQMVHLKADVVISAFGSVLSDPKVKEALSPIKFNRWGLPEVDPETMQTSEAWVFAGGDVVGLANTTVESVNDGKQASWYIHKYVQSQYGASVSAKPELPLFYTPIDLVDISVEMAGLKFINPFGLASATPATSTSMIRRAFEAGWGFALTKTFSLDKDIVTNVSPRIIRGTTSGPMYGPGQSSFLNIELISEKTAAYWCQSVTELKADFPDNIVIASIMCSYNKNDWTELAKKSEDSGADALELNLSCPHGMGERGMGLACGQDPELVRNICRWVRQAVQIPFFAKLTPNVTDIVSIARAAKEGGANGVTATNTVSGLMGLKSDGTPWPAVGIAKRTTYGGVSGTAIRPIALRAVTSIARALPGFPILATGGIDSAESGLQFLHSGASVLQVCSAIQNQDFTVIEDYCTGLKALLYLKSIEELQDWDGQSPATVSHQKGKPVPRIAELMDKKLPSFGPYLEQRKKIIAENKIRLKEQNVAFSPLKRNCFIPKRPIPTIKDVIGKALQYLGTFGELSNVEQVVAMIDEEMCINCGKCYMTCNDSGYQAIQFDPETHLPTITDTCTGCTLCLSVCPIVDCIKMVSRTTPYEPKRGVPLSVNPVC

[2] = humans
[3] = treated patients; for patients in whom hand-foot syndrome occurred: any grade

share of the injected dose deactivated by DPD [1] | oral absorption [2] | patients in whom hand-foot syndrome occurred [3] | patients with the most severe form (grade 3) of hand-foot syndrome [3] | Molecule
more than 85% | – | – | – | O=c1[nH]cc(F)c(=O)[nH]1 [5-FU, 5-fluorouracil]
– | rapidly and almost completely absorbed | 53% | 17% | CCCCCOC(=O)Nc1nc(=O)n([C@@H]2O[C@H](C)[C@@H](O)[C@H]2O)cc1F [capecitabine, N^4-pentyloxycarbonyl-5′-deoxy-5-fuorocytidine]
– | – | 6% | 1% | 5-FU/leucovorin
